According to patent US10653617B2, “Compositions of additives to ginger-curcumin to facilitate growth of fibroblasts and collagen” (priority 2016, dated 2020):

What was measured:
[1] = tested on: Human dermal fibroblasts; assay: Fibroblast cytotoxicity assay; assay type: cell-based; settings: 72 hours; for growth-inhibition/cytotoxicity of the individual agent: agent tested individually over a wide range of concentrations; for concentration up to which non-toxic (all concentrations evaluated): agent tested individually, KBM, 1.5 mM calcium
Method: Human dermal fibroblasts were isolated from skin biopsies and grown in monolayer culture using DMEM supplemented with 10% fetal bovine serum as culture medium. Growth was at 37° C. in a humidified atmosphere containing 5% CO2 and 95% air. For experimental studies, cells were plated at 5×10^4 cells per well in wells of a 24-well culture dish in the same culture medium. One day later, cells were washed and the DMEM culture medium was replaced with KBM. Human dermal fibroblasts were treated with culture medium (KBM) supplemented with a concentration of calcium (1.5 mM) that supports fibroblast survival on its own. Reagents to be tested for cytotoxicity and/or growth inhibition were included in the culture medium and the cells incubated for 72 hours.

[2] = tested on: Human dermal fibroblasts; settings: cited from earlier work

Compound	growth-inhibition/cytotoxicity of the individual agent [1]	concentration up to which non-toxic (all concentrations evaluated) [1]	also measured
CCCCCCCCCCCCOS(=O)(=O)[O-].[Na+] [SLS, sodium lauryl sulfate]	levels that produced growth-inhibition/cytotoxicity were achieved		
COc1cc(/C=C/C(=O)CC(=O)/C=C/c2ccc(O)c(OC)c2)ccc1O [curcumin]	levels that produced growth-inhibition/cytotoxicity were achieved		
O=C1O[C@H]([C@@H](O)CO)C(O)=C1O [L-ascorbic acid]		up to 200 μg/mL	
CC1=C(/C=C/C(C)=C/C=C/C(C)=C/C(=O)O)C(C)(C)CCC1 [ATRA, all-trans retinoic acid]			concentrations that are effective in this assay [2]: 1 to 10 µM
CS(C)(=O)=O [MSM, dimethyl sulfone]	levels that produced growth-inhibition/cytotoxicity were achieved		
hyaluronan		≤ 20000 ng/mL	
